# Measured values reported in patent publication US7084141B2, “Inhibitors of macrophase migration inhibitory factor and methods for identifying the same” (Avanir Pharmaceuticals, priority 2001, dated 2006).
# Where two headings read alike, the source gives them in different places.
# Legend:
# [1] = test system: BALB/c mice sensitized with β-D-galactosamine; assay type: in vivo, mouse
# serum TNF-α = assay: Serum TNF-α after LPS challenge in mice (ELISA); assay type: in vivo, mouse; conditions: 20 mg/kg compound, LPS 5 mg/kg, four hours
# Description: Ten 10-week-old (20±2 gram) female BALB/c mice (Charles River Laboratories, Kingston, N.Y.) were housed in a group of 5 per cage with free access to food and water and were acclimatized for at least one week prior to experimentation. On the day of experiment, mice were weighed and randomly distributed into group of 10 animals of equal mean body weight. Mice were injected i.p. with 200 μL of formulated compound 7e or buffer alone immediately before the i.p. injection of LPS (Escherichia coli 0111:B4, 10 mg/kg or 5 mg/kg body weight) and β-D-galactosamine (50 mg/kg body weight). […] Mouse serum Il-1β and TNF-α were measured by ELISA using a “mouse IL 1β immunoassay or mouse TNF-α immunoassay” kits (R&D System Minneapolis, Minn.) following manufacturer's direction. Serum MIF concentrations in mouse serum were quantified by a sandwich ELISA (ChemiKine MIF Kit, Chemicon, San Diego, Calif.). Samples were analyzed in duplicate, and results were averaged.
# An initial control experiment was conducted to determine the base line levels of endogenous MIF in the murine model system (female Balb/c mice), and further to determine the rate and extent of increase in endogenous MIF following treatment with LPS (10 mg/kg). […] The level of MIF in serum was measured by HPLC as described above at 0, 2, 5 and 6 hours following LPS/galactosamine treatment. […]
# [2] = target: T1, MIF produced by THP-1 cells (Homo sapiens, UniProt P14174); assay: High throughput screening ELISA for MIF inhibitors (THP-1 supernatant / pre-conditioned media incubated with inhibitor); assay type: binding; conditions: absence of cells, 30 minutes at 37° C.
# T1 construct: a test cell may express the MIF naturally (e.g., THP-1 cells); endogenous in cells; host or cells: THP-1 cells stimulated with LPS
# T1 sequence (P14174 2-115 limits assumed): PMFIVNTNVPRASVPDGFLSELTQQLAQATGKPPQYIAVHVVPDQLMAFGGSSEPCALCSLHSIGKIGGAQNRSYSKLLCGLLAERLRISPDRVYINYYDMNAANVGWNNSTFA
# Description: Alternatively, ELISA may be preferred to detect and quantify the amount of MIF in cell supernatants. ELISA is preferred for detection in high throughput screening. Briefly, 96-well plates are coated with an anti-MIF antibody or anti-tag antibody, washed, and blocked with 2% BSA. Cell supernatant is then added to the wells. Following incubation and washing, a second antibody (e.g., to MIF) is added. The second antibody may be coupled to a label or detecting reagent, such as an enzyme or to biotin. Following further incubation, a developing reagent is added and the amount of MIF determined using an ELISA plate reader. […]
# In the previous experiment (FIG. 3), the ability of compound 7e to modulate antibody binding to MIF protein was analyzed in the presence of LPS-stimulated THP1 cells. […] Six hours later, the conditioned media was removed, clarified of cell debris and the amount of MIF determined to be 22 ng/ml. […] The level of detectable MIF was then determined by ELISA using the monoclonal anti-MIF antibody for detection. […]
# The high throughput screening assay for MIF inhibitors is performed in a 96-well format using MIF produced by THP-1 cells and is performed as follows. […] The amount of MIF is calculated by interpolation from an MIF standard curve.
smiles,measurement,setting,value
Cn1c(=O)c([N+](=O)[O-])c(N2CCN(C(=O)c3ccco3)CC2)c2ccccc21 [compound 7e],survival at 12 hours,"[1]; 1 mg/kg LPS, 20 mg/kg compound, neutralized by 300 μg/kg human recombinant MIF",significantly more (p<0.01) mice survive
same,75% Animal Death,[1]; LPS Dosage 0.1 mg/kg,>100 h
same,75% Animal Death,[1]; LPS Dosage 0.5 mg/kg,>100 h
same,75% Animal Death,[1]; LPS Dosage 2 mg/kg,>100 h
same,75% Animal Death,[1]; LPS Dosage 5 mg/kg,32.0 h
same,75% Animal Death,[1]; LPS Dosage 10 mg/kg,18.0 h
same,75% Animal Death,[1]; LPS Dosage 40 mg/kg,11.6 h
same,survival,"[1]; lethal dose of LPS (2, 5 and 10 mg/kg), 20 mg/kg i.p., control 6%, p=0.0004",47%
same,serum TNF-α level,serum TNF-α,reductions
same,MIF specific ELISA signal in pre-conditioned media,[2],rapid loss of MIF specific ELISA signal
